Patent publication US20230136600A1, “Method and device for screening antigen epitope polypeptide” (priority 2020, published 2023)

System: Balb/c mice
Assay: Polypeptide chip-based vaccine immunogenicity scoring system
Format: in vivo
Design: key to A2: whether the 95 percentile of the last sampling is increased compared with the end point: Y = rise; N = no rise
Conditions: for A: 95 percentile grouping number score / B: Mouse performance score: total score = 5; for C1: #A timing-sequence response peptide fragment set / C2: #B vaccine specificity peptide fragment set / C3: Intersection of A and B / C4: Percentage of the intersection in set B / C: Timing-sequence response and specificity score: value of the whole mix
Procedure: Data distribution and characteristics thereof are analyzed based on a) and b), a polypeptide chip-based vaccine immunogenicity scoring system (referring to Table 7) is designed.
10 combinations are evaluated by the polypeptide chip-based vaccine immunogenicity scoring system. An evaluation method is consistent with that in Embodiment II. Evaluation results are show in the table below.
This embodiment is consistent with Embodiment II. Each combination is evaluated by the polypeptide chip-based vaccine immunogenicity scoring system. Evaluation results are show in the table below.

[1] = Embodiment III, polypeptide-KLH
[2] = Embodiment III, polypeptide-KLH, Mix1-10
[3] = Embodiment III, polypeptide-KLH, A*3 + B*2 + C*1
[4] = adjuvant AddaVax, 7 peptides co-immunized in mice
[5] = adjuvant Adju-Phos, 7 peptides co-immunized in mice
[6] = adjuvant Alhydrogel, 7 peptides co-immunized in mice
[7] = adjuvant Imjet Alumn, 7 peptides co-immunized in mice
[8] = adjuvant MA103A, 7 peptides co-immunized in mice
[9] = adjuvant MA103B, 7 peptides co-immunized in mice

LQDLKWARFPKS [SEQ ID NO:29]
B1: D 0-D 14 95 percentile rise in the number of mice [1]: 3 | B2: D 0-D 21 95 percentile rise in the number of mice [1]: 3 | B3: D 14-D 21 95 percentile rise in the number of mice [1]: 2 | B4: D 21-D 28 95 percentile rise in the number of mice [1]: 0 | A1: difference between a highest median and a D 0 median (95 percentile) [2]: 0.10 | A2: whether the 95 percentile of the last sampling is increased compared with the end point [2]: N | Total single peptide [3]: 16.3 | A: 95 percentile grouping number score [1]: 4 | B: Mouse performance score [1]: 1.9 | C1: #A timing-sequence response peptide fragment set [1]: 257 | C2: #B vaccine specificity peptide fragment set [1]: 682 | C3: Intersection of A and B [1]: 3 | C4: Percentage of the intersection in set B [1]: 0.440 | C: Timing-sequence response and specificity score [1]: 0.5 | 1) 95 percentile grouping number A [4]: 4 | 1) 95 percentile grouping number A1 [4]: 0.055 | 2) Mouse performance B [4]: 3.5 | 2) Mouse performance B1 [4]: 3 | 2) Mouse performance B2 [4]: 5 | 2) Mouse performance B3 [4]: 4 | 3) Timing-sequence response and specificity C [4]: 0 | 3) Timing-sequence response and specificity C1 [4]: 237 | 3) Timing-sequence response and specificity C2 [4]: 1244 | 3) Timing-sequence response and specificity C3 [4]: 0 | 3) Timing-sequence response and specificity C4 [4]: 0.000 | Total single peptide [4]: 19 | 1) 95 percentile grouping number A [5]: 3.5 | 1) 95 percentile grouping number A1 [5]: 0.055 | 2) Mouse performance B [5]: 1.9 | 2) Mouse performance B1 [5]: 3 | 2) Mouse performance B2 [5]: 3 | 2) Mouse performance B3 [5]: 1 | 3) Timing-sequence response and specificity C [5]: 0 | 3) Timing-sequence response and specificity C1 [5]: 203 | 3) Timing-sequence response and specificity C2 [5]: 1244 | 3) Timing-sequence response and specificity C3 [5]: 0 | 3) Timing-sequence response and specificity C4 [5]: 0.000 | Total single peptide [5]: 14.3 | 1) 95 percentile grouping number A [6]: 3 | 1) 95 percentile grouping number A1 [6]: 0.04 | 2) Mouse performance B [6]: 1.9 | 2) Mouse performance B1 [6]: 5 | 2) Mouse performance B2 [6]: 2 | 2) Mouse performance B3 [6]: 0 | 3) Timing-sequence response and specificity C [6]: 1 | 3) Timing-sequence response and specificity C1 [6]: 123 | 3) Timing-sequence response and specificity C2 [6]: 1244 | 3) Timing-sequence response and specificity C3 [6]: 2 | 3) Timing-sequence response and specificity C4 [6]: 0.161 | Total single peptide [6]: 13.3 | 1) 95 percentile grouping number A [7]: 5 | 1) 95 percentile grouping number A1 [7]: 0.08 | 2) Mouse performance B [7]: 2.5 | 2) Mouse performance B1 [7]: 5 | 2) Mouse performance B2 [7]: 3 | 2) Mouse performance B3 [7]: 1 | 3) Timing-sequence response and specificity C [7]: 1 | 3) Timing-sequence response and specificity C1 [7]: 100 | 3) Timing-sequence response and specificity C2 [7]: 1244 | 3) Timing-sequence response and specificity C3 [7]: 3 | 3) Timing-sequence response and specificity C4 [7]: 0.241 | Total single peptide [7]: 20.5 | 1) 95 percentile grouping number A [8]: 5 | 1) 95 percentile grouping number A1 [8]: 0.08 | 2) Mouse performance B [8]: 2.9 | 2) Mouse performance B1 [8]: 5 | 2) Mouse performance B2 [8]: 5 | 2) Mouse performance B3 [8]: 1 | 3) Timing-sequence response and specificity C [8]: 1 | 3) Timing-sequence response and specificity C1 [8]: 260 | 3) Timing-sequence response and specificity C2 [8]: 1244 | 3) Timing-sequence response and specificity C3 [8]: 3 | 3) Timing-sequence response and specificity C4 [8]: 0.241 | Total single peptide [8]: 21.3 | 1) 95 percentile grouping number A [9]: 4.5 | 1) 95 percentile grouping number A1 [9]: 0.065 | 2) Mouse performance B [9]: 3.7 | 2) Mouse performance B1 [9]: 5 | 2) Mouse performance B2 [9]: 5 | 2) Mouse performance B3 [9]: 3 | 3) Timing-sequence response and specificity C [9]: 0 | 3) Timing-sequence response and specificity C1 [9]: 153 | 3) Timing-sequence response and specificity C2 [9]: 1244 | 3) Timing-sequence response and specificity C3 [9]: 0 | 3) Timing-sequence response and specificity C4 [9]: 0.000 | Total single peptide [9]: 20.9

MADSNGTIT (SARS-CoV-2) [SEQ ID NO:16]
A2: whether the 95 percentile of the last sampling is increased compared with the end point (Embodiment II, Combination 2): Y | B1: D 0-D 14 95 percentile rise in the number of mice (Embodiment II, Combination 2): 5 | B2: D 0-D 21 95 percentile rise in the number of mice (Embodiment II, Combination 2): 1 | B3: D 14-D 21 95 percentile rise in the number of mice (Embodiment II, Combination 2): 0 | B4: D 21-D 28 95 percentile rise in the number of mice (Embodiment II, Combination 2): 2 | Total single peptide (Embodiment II, Combination 2, A*3 + B*2 + C*1): 19.9 | A: 95 percentile grouping number score (Embodiment II, Combination 2): 5 | B: Mouse performance score (Embodiment II, Combination 2): 2.2 | A1: difference between a highest median and a D 0 median (95 percentile) (Embodiment II, mice immunized with Combination 2): 0.2 | B1: D 0-D 14 95 percentile rise in the number of mice [1]: 3 | B2: D 0-D 21 95 percentile rise in the number of mice [1]: 3 | B3: D 14-D 21 95 percentile rise in the number of mice [1]: 1 | B4: D 21-D 28 95 percentile rise in the number of mice [1]: 2 | A1: difference between a highest median and a D 0 median (95 percentile) [2]: 0.08 | A2: whether the 95 percentile of the last sampling is increased compared with the end point [2]: Y | Total single peptide [3]: 15.2 | A: 95 percentile grouping number score [1]: 3.5 | B: Mouse performance score [1]: 2.1 | C1: #A timing-sequence response peptide fragment set [1]: 511 | C2: #B vaccine specificity peptide fragment set [1]: 364 | C3: Intersection of A and B [1]: 1 | C4: Percentage of the intersection in set B [1]: 0.275 | C: Timing-sequence response and specificity score [1]: 0.5

NLDSKVGGNYNY [SEQ ID NO:15]
B1: D 0-D 14 95 percentile rise in the number of mice [1]: 3 | B2: D 0-D 21 95 percentile rise in the number of mice [1]: 3 | B3: D 14-D 21 95 percentile rise in the number of mice [1]: 1 | B4: D 21-D 28 95 percentile rise in the number of mice [1]: 0 | A1: difference between a highest median and a D 0 median (95 percentile) [2]: 0.15 | A2: whether the 95 percentile of the last sampling is increased compared with the end point [2]: N | Total single peptide [3]: 17.4 | A: 95 percentile grouping number score [1]: 4.5 | B: Mouse performance score [1]: 1.7 | C1: #A timing-sequence response peptide fragment set [1]: 257 | C2: #B vaccine specificity peptide fragment set [1]: 682 | C3: Intersection of A and B [1]: 3 | C4: Percentage of the intersection in set B [1]: 0.440 | C: Timing-sequence response and specificity score [1]: 0.5
